Results taken from patent US20210347724A1, “METHOXYCHALCONE DERIVATIVES AND USES THEREOF” (The Board of Trustees of the Leland Stanford Junior …, priority 2020, published 2021).

Assay: Pharmacokinetics study
Format: in vivo, Balb/c male mice
Details: male, Balb/c, mouse, ip; 50 mg/kg i.p., plasma
Protocol: Pharmacokinetics study. Mass quantification analysis was carried out using an Agilent 6490 iFunnel triple quadrupole (QQQ) mass spectrometer equipped with an Agilent 1290 infinity II UHPLC. ZORBAX C18 (Eclipse Plus, 2.1×50 mm, 1.8 μm particle size) was used as analytical UHPLC column. The mobile phase was composed of 50% mixture of water (with 0.1% formic acid and 4 mM ammonium formate) and acetonitrile (0.1% formic acid). The flow rate of mobile phase was set at 0.5 mL/min and column temperature was adjusted at 30° C. The electrospray ionization source was operated in positive ion mode. […] For SU086-CD3 the [M+H]^+ ions were monitored at m/z 347.1 as the precursor ion and a fragment at m/z 198.1 as the product ion. […] Blood was collected retro-orbitally at 5, 15, 30, 60, 120, 360 and 720 minutes after injection in three mice per time point. Blood plasma was separated via centrifugation at 7,000 RPM for 10 minutes. Each plasma sample was mixed with SU086-CD3 internal standard. 10 μL of plasma was mixed with 190 μL MS-grade acetonitrile and vortexed 30 seconds followed by 5 minutes incubation at RT. Mixture was centrifuged at 11,000 RPM for 15 min at 4° C. and supernatant was collected and further cleaned by re-centrifugation. Each protein-free plasma fraction (n=3, from three independent mouse) was resolved using the HPLC/MS MRM method as described above.

half-life: 1 h
SMILES: COc1cc(OC)c(C(=O)/C=C/c2cccc([N+](=O)[O-])c2)c(OC)c1 [SU086]
